Our source for the KD and ΔTm values is publication PMC5519986 (2017).

For assay [1], the system named is dsDNA (control duplex DNA) (DNA, duplex) CAAAAATTTTTGCAAAAATTTTTG
In words: fluorescence titration (ligand fluorescence, Hill fit). Particulars: K+ (100 mM Tris-KCl), pH 7.4, 25 °C, 1 μM ligand titrated with DNA.

In assay [2] the test system is c-MYC G-quadruplex DNA (DNA, G4) GGGGAGGGTGGGGAGGGTGGGG
The description is as above. Particulars: K+ (100 mM Tris-KCl), pH 7.4, 25 °C, 1 μM ligand titrated with DNA.

Assay [3] deals with c-MYC G-quadruplex DNA, dual labelled (FRET) (DNA, G4) GGGGAGGGTGGGGAGGGTGGGG
Description: FRET melting. The settings on record: K+ (60 mM potassium cacodylate), pH 7.4, 100 nM DNA, 1 μM compound.

Assay [4] has as its system dsDNA, dual labelled (FRET) (DNA, duplex) CAAAAATTTTTGCAAAAATTTTTG
Description: FRET melting. The settings on record: K+ (60 mM potassium cacodylate), pH 7.4, 100 nM DNA, 1 μM compound.

Some results are limits rather than exact numbers.

As to `CN(C)CCCNC(=O)c1ccc(-n2c3ccccc3c3cc(-c4cn(-c5ccc(N)cc5)nn4)ccc32)cc1`, the KD is more than 25000 nM in assay [1] and 510 ± 50 nM in assay [2]. In addition, the ΔTm came to 11.14±0.28 °C in assay [3] and 1.61±0.12 °C in assay [4].
For `CN(C)CCCNC(=O)c1ccc(-n2c3ccccc3c3cc(-c4cn(CCCN(C)C)nn4)ccc32)cc1`, in that order: 880 ± 20 nM, 1130 ± 30 nM, 8.17±0.41 °C and 8.41±0.21 °C.
For `CN(C)CCCNC(=O)c1ccc(-n2cc(-c3ccc4c(c3)c3ccccc3n4-c3ccc(C(=O)NCCCN(C)C)cc3)nn2)cc1`, in that order: more than 30000 nM, 170 ± 10 nM, 19.3±0.96 °C and 0.86±0.04 °C.

In general, KD refers to the concentration at which binding is half-saturated. A low value points to tighter binding. The term ΔTm denotes the change in melting temperature against a reference sample.
